Data set [1] deals with P. falciparum asexual stages. The note with it: TCAMS data, cited from earlier work.
For data set [2], the system named is P. falciparum stage V gametocytes. The data set is described as follows: Gametocytocidal ATP bioluminescence assay (single point 5 μM and 1 μM, dose-response). It is filed as cell-based, Plasmodium falciparum. The settings on record: for Ratio IC50 HepG2/IC50 P. falciparum: IC50 HepG2 divided by IC50 P. falciparum gametocytes.
Description: Purified stage IV-V gametocytes were obtained as previously described [10]. Single point ATP bioluminescence assay and dose–response of positive hits was determined in accordance with the previously published protocol [10].
Data set [3] deals with luciferase reaction (BacTiter-Glo). The data set can be described thus: Interference assay (inhibition of the BacTiter-Glo luciferase reaction). The arrangement: concentration or dose not given beside the values. It is filed as biochemical. The note with it: ATP interference assay. The method, then:
To discard possible false-positive results, we performed an interference assay in parallel. […] […]. The ATP solution was made by dissolving ATP powder (ATP standard from the ATPlite 1 step assay kit, reference 6016731, Perkin Elmer) in culture medium. The positive control used was the Luciferase Inhibitor I Calbiochem (Merck, 119113) at 100 μM.

Data set [4] in a line: Cytotoxicity in HepG2 cells (intracellular ATP, ATPlite, 48 h). The settings on record: human, HepG2 cells. It is filed as cell-based, human. A general note: ATP-based viability assays read luminescence as a measure of living cells.
For the next data set, the system named is HepG2 cells. Described as above. It is filed as cell-based, human. The note with it: IC50 HepG2 divided by IC50 P. falciparum gametocytes.
The mark [5] stands for this setting: P. falciparum asexual stages, read-out: IC50 (µM) Pf asexual stages.
The mark [6] stands for this setting: asexual stages, read-out: IC50 asexual.
[7] abbreviates: Plasmodium falciparum, P. falciparum gametocytes, average, read-out: IC50 Pf Gametocytes average, IC50 (µM) average.
Where [8] appears, read: Plasmodium falciparum, sexual stages (gametocytes), dose-response, read-out: IC50 sexual.
The mark [9] stands for this setting: IC50 per ratio column head, unit inferred, read-out: Cytotoxicity in HepG2.
Setting [10] is: sexual stages (gametocytes), dose-response, read-out: IC50 sexual.
Where [11] appears, read: HepG2, 48 h exposure, intracellular ATP, read-out: IC50 (μM) Cytotoxicity HepG2.

Like-named read-outs stand apart in the source and are kept apart here.

Take `COc1ccc(NC(=O)C2c3ccccc3C(=O)N(CC(C)C)C2c2cccs2)cc1OC` (stereo not shown) [TCMDC-125289]: the IC50 was 0.2 µM in data set [1] (setting [5]), 0.203 µM in data set [1] (setting [6]), 0.43 µM in data set [2] (setting [7]) and 0.427 µM in data set [2] (setting [8]). For the same compound, the “Ratio IC50 HepG2/IC50 P. falciparum” value (in data set [2]; in the data set with HepG2 cells) was >58 in each case. For the same compound, in data set [3], the “% Control luminiscence” value came to 100%. The IC50 at 48 h in data set [4] (setting [9]) was > 25 µM.
One may read the inhibition as the relative decrease from the control value, in per cent. On to `Fc1ccc2[nH]c(-c3ccc(-c4ccc(CNCCN5CCNCC5)cc4)s3)nc2c1` [TCMDC-132869], for which the IC50 was 0.78 µM in data set [1] (setting [5]); 0.779 µM in data set [1] (setting [6]); 0.53 µM in data set [2] (setting [7]); 0.53 µM in data set [2] (Plasmodium falciparum, gametocytes (S9 Table), read-out: pIC50game (converted)). For the same compound, the “Ratio IC50 HepG2/IC50 P. falciparum” value (in data set [2]; with HepG2 cells) was >47 in each case. For the same compound, the inhibition at 5 µM in data set [2] (Plasmodium falciparum, gametocytes, primary screen at 5 μM (S9 Table, CSA analogs)) was determined as 101%. For the same compound, the “% Control luminiscence” value in data set [3] is given as 100%. In addition, the IC50 at 48 h in data set [4] (setting [9]) was > 25 µM.
With `NCc1ccc(CNCc2cccc(-c3ccc(-c4nc5ccccc5[nH]4)cc3)c2)cc1` [TCMDC-132815], the IC50 was 0.717 µM in data set [1] (setting [6]), 0.48 µM in data set [2] (setting [7]) and 0.483 µM in data set [2] (setting [10]). In addition, the “Ratio IC50 HepG2/IC50 P. falciparum” value (in data set [2]; in the data set on HepG2 cells) was 45 in each case. Besides, the “% Control luminiscence” value in data set [3] is given as 100%. In data set [4] (setting [9]), the IC50 at 48 h worked out at 21.8 µM.
`COc1ccc2nc3cc(Cl)ccc3c(NCCN3CCN(C)CC3)c2c1` [TCMDC-137476]: the IC50 is 0.12 µM in data set [1] (setting [5]), 0.124 µM in data set [1] (setting [6]), 1.88 µM in data set [2] (setting [7]) and 1.88 µM in data set [2] (setting [8]). The “Ratio IC50 HepG2/IC50 P. falciparum” value (in data set [2]; with HepG2 cells) was 10 in each case. In addition, the “% Control luminiscence” value in data set [3] turned out to be 100%. Moreover, the IC50 at 48 h in data set [4] (setting [11]) turned out to be 19 µM; in data set [4] (setting [9]), 19.3 µM.
With `Cc1n[nH]c2ccc(-c3ccc4nccc(N5CCC(N)CC5)c4c3)cc12` [TCMDC-134315], the IC50 in data set [1] (setting [5]) is 0.59 µM; in data set [1] (setting [6]), 0.591 µM; in data set [2] (setting [7]), 0.38 µM; in data set [2] (setting [8]), 0.383 µM. For the same compound, the “Ratio IC50 HepG2/IC50 P. falciparum” value (in data set [2]; in the data set on HepG2 cells) was 30 in each case. Moreover, the “% Control luminiscence” value in data set [3] is 100%. Besides, the IC50 at 48 h in data set [4] (setting [11]) is 12 µM; in data set [4] (setting [9]), 11.7 µM.
Consider `CCn1ncc2c(NC3CCOCC3)c(CNC(=O)c3ccnn3C)c(C)nc21` [TCMDC-136560], for which the IC50 in data set [1] (setting [5]) was 0.53 µM; in data set [1] (setting [6]), 0.533 µM; in data set [2] (setting [7]) it was 1.64 µM; in data set [2] (setting [8]), 1.64 µM. The “Ratio IC50 HepG2/IC50 P. falciparum” value (in data set [2]; in the data set on HepG2 cells) was >15 in each case. For the same compound, the “% Control luminiscence” value in data set [3] is recorded as 100%. In addition, the IC50 at 48 h in data set [4] (setting [9]) is > 25 µM.
In the case of `COc1cc2nc(N3CCC(CCCC4CCNCC4)CC3)nc(NCc3ccccn3)c2cc1OC` [TCMDC-138494], the IC50 was 0.757 µM in data set [1] (setting [6]) and 0.4 µM in data set [2] (setting [7]). In addition, the “Ratio IC50 HepG2/IC50 P. falciparum” value (in data set [2]; in the data set with HepG2 cells) was 26 throughout. In addition, the “% Control luminiscence” value in data set [3] is recorded as 100%. Moreover, the IC50 at 48 h in data set [4] (setting [9]) amounted to 10.6 µM.
With `Fc1ccc(NC(=S)NN=Cc2ccccn2)cc1` [TCMDC-125521], the IC50 in data set [1] (setting [5]) is 0.77 µM; in data set [1] (setting [6]) it was 0.775 µM; in data set [2] (setting [7]), 0.12 µM. Moreover, the “Ratio IC50 HepG2/IC50 P. falciparum” value (in data set [2]; with HepG2 cells) was 195 throughout. Besides, the “% Control luminiscence” value in data set [3] stood at 100%. The results for the IC50 at 48 h in data set [4] (setting [11]) and in data set [4] (setting [9]) were 23 µM and 23.4 µM, respectively.
As to `O=C(c1ccc([N+](=O)[O-])o1)N1CCC(Cc2ccc(C(F)(F)F)cc2)CC1` [TCMDC-124805], the IC50 in data set [1] (setting [5]) is 0.17 µM; in data set [1] (setting [6]), 0.166 µM; in data set [2] (setting [7]), 0.26 µM; in data set [2] (setting [8]) it was 0.257 µM. Moreover, the “Ratio IC50 HepG2/IC50 P. falciparum” value (in data set [2]; in the data set on HepG2 cells) was 55 each time. In data set [3], the “% Control luminiscence” value is given as 100%. The IC50 at 48 h in data set [4] (setting [11]) came out at 14 µM; in data set [4] (setting [9]) it was 14.1 µM.
On to `CN(C)CCNC(=O)c1ccc(-c2cnc3ccc(NCc4ccc(Cl)c(Cl)c4)nn23)cc1` [TCMDC-136678], for which the IC50 in data set [1] (setting [5]) was 0.91 µM; in data set [1] (setting [6]), 0.913 µM; in data set [2] (setting [7]), 0.33 µM; in data set [2] (setting [8]) it was 0.333 µM. Further, the “Ratio IC50 HepG2/IC50 P. falciparum” value (in data set [2]; in the data set with HepG2 cells) was 50 each time. The “% Control luminiscence” value in data set [3] was found to be 100%. Moreover, the results for the IC50 at 48 h in data set [4] (setting [11]) and in data set [4] (setting [9]) were 17 µM and 16.7 µM, respectively.
Regarding `CCc1nn2c(Nc3ccncc3)cc(C)nc2c1-c1ccccc1` [TCMDC-124917], the IC50 in data set [1] (setting [5]) is 0.2 µM; in data set [1] (setting [6]), 0.203 µM; in data set [2] (setting [7]) it was 1.9 µM; in data set [2] (setting [8]), 1.9 µM. The “Ratio IC50 HepG2/IC50 P. falciparum” value (in data set [2]; in the data set on HepG2 cells) was >13 throughout. Also, in data set [3], the “% Control luminiscence” value was 93%. Further, the IC50 at 48 h in data set [4] (setting [9]) was > 25 µM.
With `Fc1ccc2[nH]c(-c3cccc(-c4cccc(CNCCN5CCNCC5)c4)c3)nc2c1` [TCMDC-132860], the IC50 is 0.84 µM in data set [1] (setting [5]), 0.842 µM in data set [1] (setting [6]), 0.74 µM in data set [2] (setting [7]) and 0.737 µM in data set [2] (setting [8]). The “Ratio IC50 HepG2/IC50 P. falciparum” value (in data set [2]; in the data set with HepG2 cells) was 27 throughout. Further, the “% Control luminiscence” value in data set [3] amounted to 100%. Moreover, the IC50 at 48 h in data set [4] (setting [11]) came to 20 µM; in data set [4] (setting [9]), 19.6 µM.
Regarding `Cc1cc(Nc2ccncc2)n2nc(C)c(-c3ccccc3Cl)c2n1` [TCMDC-124918], the IC50 in data set [1] (setting [5]) was 0.65 µM; in data set [1] (setting [6]), 0.654 µM; in data set [2] (setting [7]), 1.94 µM; in data set [2] (setting [8]) it was 1.94 µM. Moreover, the “Ratio IC50 HepG2/IC50 P. falciparum” value (in data set [2]; with HepG2 cells) was >13 each time. The “% Control luminiscence” value in data set [3] worked out at 100%. The IC50 at 48 h in data set [4] (setting [9]) is > 25 µM.
As for `CCN(CC)CCN(Cc1ccc(-c2ccc(C(F)(F)F)cc2)cc1)C(=O)Cn1cc(Cc2cnn(C)c2)c(=O)nc1/C=C/c1cccc(F)c1F` [TCMDC-140964], the IC50 in data set [1] (setting [6]) is 0.957 µM; in data set [2] (setting [7]) it was 0.17 µM; in data set [2] (setting [10]) it was 0.173 µM. Besides, the “Ratio IC50 HepG2/IC50 P. falciparum” value (in data set [2]; with HepG2 cells) was 83 throughout. In addition, the “% Control luminiscence” value in data set [3] is 100%. Moreover, the IC50 at 48 h in data set [4] (setting [9]) was 14.4 µM.
For the compound `COc1cccc(Nc2c(C(N)=O)cnc3ccc(-c4ccc([S+](C)[O-])cc4)cc23)c1` (stereo not shown) [TCMDC-135184], the IC50 in data set [1] (setting [5]) was 0.19 µM; in data set [1] (setting [6]), 0.186 µM; in data set [2] (setting [7]) it was 1.43 µM; in data set [2] (setting [8]) it was 1.43 µM. In addition, the “Ratio IC50 HepG2/IC50 P. falciparum” value (in data set [2]; in the data set on HepG2 cells) was >18 each time. The “% Control luminiscence” value in data set [3] was 100%. Also, the IC50 at 48 h in data set [4] (setting [9]) is > 25 µM.
Turning to `COc1ccc(COc2cc(NCCCN)nc3ccccc23)cc1` [TCMDC-139286], the figures for the IC50 in data set [1] (setting [5]), in data set [1] (setting [6]) and in data set [2] (setting [7]) were 1.28 µM, 1.28 µM and 0.56 µM, respectively. In addition, the “Ratio IC50 HepG2/IC50 P. falciparum” value (in data set [2]; in the data set on HepG2 cells) was 25 each time. Also, the “% Control luminiscence” value in data set [3] amounted to 100%. Moreover, the IC50 at 48 h in data set [4] (setting [11]) and in data set [4] (setting [9]) was 14 µM in each case.

Values taken from publication PMC4552634, “A New Set of Chemical Starting Points with Plasmodium falciparum Transmission-Blocking Potential for Antimalarial Drug Discovery” (PLoS ONE, 2015).
